{"source": "BindingDB's records for doi:10.1021/jm00129a030", "about": "(Takeda Chemical Industries, 1989)", "target": "Thromboxane A2 receptor (Cavia porcellus)", "test": "In vitro concentration that reduced specific binding of [3H][…] to guinea pig platelet receptor, Thromboxane A2 receptor by 50%", "note": "pIC50: −log10 of the molar value.", "data": [{"compound": "CCCCC[C@H](O)/C=C/[C@@H]1[C@@H](C/C=C\\CCCC(=O)O)[C@H]2CO[C@@H]1C2", "note": "[(Z)-7-((1R,4S,5S,6R)-6-((S,E)-3-hydroxyoct-1-enyl)-2-oxabicyclo[2.2.1]heptan-5-yl)hept-5-enoic acid]", "values": [{"measurement": "pIC50", "value": 7.51}]}]}
